Assay results reported in paper PMC12490008 (Environmental Science & Technology, 2025).
*1 amine or outer side, *2 acyl side, *3 side chain or, on linkers, in order; H or OH if unused. Where a SMILES comes first, the peptide text is derived from it. Bridges are numbered along the chain shown (N, C = ends). [ ]: non-standard residue; d: D form. hTyr = N[C@@H](CCc1ccc(O)cc1)C(=O)O; NMeA = CN[C@@H](C)C(=O)O; CO = O=C([*:1])[*:2]

Columns and labels:
[1] = test system: River Chriesbach biofilm suspensions
[2] = test system: River Chriesbach biofilm suspension
[3] = test system: River Chriesbach biofilm suspension (100%, 10%, 1%)
[4] = test system: River Chriesbach river water
[5] = test system: River Chriesbach biofilm suspension (100%)

| Molecule | 1d removal, 1% biofilm [3] | 1d removal, 10% biofilm [3] | 1d removal, 100% biofilm [3] | Half-lives (h), 10% biofilm [3] | Half-lives (h), 100% biofilm [3] | Lag-time (h), 10% biofilm [3] | Lag-time (h), 100% biofilm [3] | 1d removal, River water [4] | Half-lives (h), River water [4] | Lag-time (h), River water [4] | 1.3d removal, 2% metabolite [5] | 1.3d removal, 10% metabolite [5] | 1.3d removal, 100% metabolite [5] | Half-lives (h), 2% metabolite [5] | Half-lives (h), 10% metabolite [5] | Half-lives (h), 100% metabolite [5] | Lag-time (h), 2% metabolite [5] | Lag-time (h), 10% metabolite [5] | Lag-time (h), 100% metabolite [5] | removal within 3 days [2] | other results |
| --- | --- | --- | --- | --- | --- | --- | --- | --- | --- | --- | --- | --- | --- | --- | --- | --- | --- | --- | --- | --- | --- |
| Anabaenopeptin D | – | – | – | – | – | – | – | – | – | – | – | – | – | – | – | – | – | – | – | – | biodegradability in biofilm suspensions (in words) [1]: did not show detectable biotransformation |
| Anabaenopeptin B | -11% | 23% | 85% | 111.9 h | 10.4 h | 111.7 h | 8.5 h | -23% | n.d.(decay) | n.d.(decay) | 100% | 99% | 62% | 6.2 h | 11.2 h | 30.0 h | 5.3 h | 10.3 h | 29.9 h | – | detectability at day 5 [2]: not detectable anymore; lag time (shoulder-log fitting) [2]: 2.3 days; initial removal at 1.3 days at decreased initial metabolite concentrations [5]: ~100% |
| Cyanopeptolin 963A | -26% | 5% | 56% | – | – | – | – | -81% | – | – | 100% | 98% | 64% | – | – | 29.6 h | – | – | 29.5 h | 32-35% | – |
| [D-Asp3]MC‐(H4)YR [[D-Asp3]MC-(H4)YR] | 6% | 31% | 94% | – | 7.6 h | 56.4 h | 5.8 h | -24% | – | 168.0 h | 100% | 100% | 94% | – | – | 11.0 h | – | – | 1.1 h | 86% | Lag-time (h), 1% biofilm [3]: 108.8 h; half-life, 1% biofilm [3]: 120 h; half-life, 10% biofilm [3]: 62.4 h; biodegradability in biofilm suspensions (in words) [1]: biodegradable; degradation in ambient river water [4]: detectable degradation; half-life, river water [4]: 170 h |
| Anabaenopeptin A | -9% | 25% | 86% | 103.7 h | 11.5 h | 102.8 h | 10.2 h | -28% | n.d.(decay) | n.d.(decay) | 100% | 98% | 46% | 7.2 h | 13.4 h | 34.9 h | 6.7 h | 12.3 h | 34.8 h | 32-35% | Half-lives (h), 1% biofilm [3]: 177.1 h; Lag-time (h), 1% biofilm [3]: 98.1 h; expected river water half-lives [4]: 8.6 to 10.6 days |
| Cyanopeptolin 1020 | – | 31% | 91% | 64.2 h | 9.0 h | – | 6.7 h | – | 129.5 h | – | 100% | 100% | 94% | 6.2 h | 8.3 h | 9.9 h | 5.7 h | 8.3 h | 0.4 h | – | detectability at day 5 [2]: not detectable anymore; lag time (shoulder-log fitting) [2]: 1.6 days; Half-lives (h), 1% biofilm [3]: 112.1 h; lag time, 1% biofilm [3]: 4.1 days; lag time, 10% biofilm [3]: 2.5 days; degradation in ambient river water [4]: detectable degradation; lag time, ambient river water [4]: 5.4 days |
| Aerucyclamide A | -14% | -2% | -2% | n.d.(decay) | 66.9 h | n.d.(decay) | 66.8 h | -23% | n.d.(decay) | n.d.(decay) | 64% | 43% | 21% | 28.4 h | 34.9 h | 56.9 h | 28.0 h | 34.8 h | 56.9 h | 20% | Half-lives (h), 1% biofilm [3]: n.d.(decay); Lag-time (h), 1% biofilm [3]: n.d.(decay) |
| CC[C@H](C)[C@@H]1NC(=O)[C@H](NC(=O)N[C@@H](Cc2c[nH]c3ccccc23)C(=O)O)CCCCNC(=O)[C@H](Cc2ccccc2)NC(=O)[C@H](C)N(C)C(=O)[C@H](CCc2ccc(O)cc2)NC1=O [Ferintoic acid B] ({Trp-CO}-[dK]I[hTyr][NMeA]F; lactam 1-C) | – | – | – | – | – | – | – | – | – | – | – | – | – | – | – | – | – | – | – | – | biodegradability in biofilm suspensions (in words) [1]: did not show detectable biotransformation |
| Oscillamide Y | 1% | 28% | 86% | 101.7 h | 11.1 h | 99.6 h | 9.4 h | -24% | n.d.(decay) | n.d.(decay) | 100% | 98% | 51% | 7.1 h | 12.8 h | 33.9 h | 6.8 h | 11.7 h | 33.8 h | 32-35% | Half-lives (h), 1% biofilm [3]: 191.5 h; Lag-time (h), 1% biofilm [3]: 0.0 h; expected river water half-lives [4]: 7.2 to 8.0 days |
| Cyanopeptolin B | 16% | 49% | 100% | – | – | – | – | 2% | – | – | 100% | 100% | 96% | – | – | 7.7 h | – | – | 0.0 h | more than 50% | – |
| Anabaenopeptin 871 | – | – | – | – | – | – | – | – | – | – | – | – | – | – | – | – | – | – | – | – | biodegradability in biofilm suspensions (in words) [1]: did not show detectable biotransformation |
| Cyanopeptolin D | 4% | 26% | 77% | – | 19.1 h | – | 18.7 h | 11% | n.d.(decay) | n.d.(decay) | 100% | 100% | 76% | 7.4 h | 11.1 h | 27.2 h | 7.3 h | 10.5 h | 27.2 h | more than 50% | – |
| Cyanopeptolin C | 1% | 29% | 80% | – | – | – | – | -3% | – | – | 100% | 100% | 82% | – | 8.5 h | 18.1 h | – | 8.5 h | 9.6 h | more than 50% | – |
| CC[C@H](C)[C@@H]1NC(=O)[C@H](NC(=O)N[C@@H](CCCNC(=N)N)C(=O)O)CCCCNC(=O)[C@H](Cc2ccccc2)NC(=O)[C@H](C)N(C)C(=O)[C@H](CCc2ccc(O)cc2)NC1=O [Anabaenopeptin F] ({Arg-CO}-[dK]I[hTyr][NMeA]F; lactam 1-C) | -13% | 28% | 83% | 106.3 h | 11.5 h | – | – | -44% | n.d.(decay) | – | 100% | 99% | 62% | – | 10.8 h | 30.2 h | – | – | – | more than 50% | – |
| Cyanopeptolin A | 10% | 57% | 98% | 35.9 h | 5.1 h | 0.0 h | 0.8 h | 3% | n.d.(decay) | n.d.(decay) | 100% | 100% | 97% | – | 6.5 h | 5.8 h | – | 6.1 h | 0.0 h | more than 50% | Half-lives (h), 1% biofilm [3]: 105.9 h; Lag-time (h), 1% biofilm [3]: 89.7 h |
